Results reported in PubChem BioAssay (NCI).
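Step 1: Grow cells in 96-well plates. Step 2: Expose to compound for 48 hours at 5 concentrations. Step 3: Interpolate endpoints linearly; if unreached, use highest concentration. GI50 = concentration required for 50% inhibition of growth. TGI is the concentration that stops growth completely.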

Tests used:
Assay in all cases: DTP human tumour cell line panel, 48 h
786-0 renal = test system: 786-0 renal
A498 renal = test system: A498 renal
A549 NSCLC = test system: A549 NSCLC
ACHN renal = test system: ACHN renal
BT-549 breast = test system: BT-549 breast
CAKI-1 renal = test system: CAKI-1 renal
CCRF-CEM leukemia = test system: CCRF-CEM leukemia
COLO 205 colon = test system: COLO 205 colon
DU-145 prostate = test system: DU-145 prostate
HCC-2998 colon = test system: HCC-2998 colon
HCT-116 colon = test system: HCT-116 colon
HCT-15 colon = test system: HCT-15 colon
HL-60(TB) leukemia = test system: HL-60(TB) leukemia
HOP-62 NSCLC = test system: HOP-62 NSCLC
HOP-92 NSCLC = test system: HOP-92 NSCLC
HS 578T breast = test system: HS 578T breast
HT29 colon = test system: HT29 colon
IGROV1 ovarian = test system: IGROV1 ovarian
K-562 leukemia = test system: K-562 leukemia
KM12 colon = test system: KM12 colon
LOX IMVI melanoma = test system: LOX IMVI melanoma
MALME-3M melanoma = test system: MALME-3M melanoma
MCF7 breast = test system: MCF7 breast
MDA-MB-231 breast = test system: MDA-MB-231 breast
MDA-MB-435 = test system: MDA-MB-435
MOLT-4 leukemia = test system: MOLT-4 leukemia
NCI-H226 lung = test system: NCI-H226 lung
NCI-H23 lung = test system: NCI-H23 lung
NCI-H460 lung = test system: NCI-H460 lung
NCI-H522 lung = test system: NCI-H522 lung
NCI/ADR-RES ovarian = test system: NCI/ADR-RES ovarian
OVCAR-3 ovarian = test system: OVCAR-3 ovarian
OVCAR-4 ovarian = test system: OVCAR-4 ovarian
OVCAR-5 ovarian = test system: OVCAR-5 ovarian
OVCAR-8 ovarian = test system: OVCAR-8 ovarian
PC-3 prostate = test system: PC-3 prostate
RPMI-8226 leukemia = test system: RPMI-8226 leukemia
RXF 393 renal = test system: RXF 393 renal
SF-268 CNS = test system: SF-268 CNS
SF-295 CNS = test system: SF-295 CNS
SF-539 CNS = test system: SF-539 CNS
SK-MEL-2 melanoma = test system: SK-MEL-2 melanoma
SK-MEL-28 melanoma = test system: SK-MEL-28 melanoma
SK-MEL-5 melanoma = test system: SK-MEL-5 melanoma
SK-OV-3 ovarian = test system: SK-OV-3 ovarian
SN12C renal = test system: SN12C renal
SNB-19 CNS = test system: SNB-19 CNS
SNB-75 CNS = test system: SNB-75 CNS
SR leukemia = test system: SR leukemia
SW-620 colon = test system: SW-620 colon
T-47D breast = test system: T-47D breast
TK-10 renal = test system: TK-10 renal
U251 CNS = test system: U251 CNS
UACC-257 melanoma = test system: UACC-257 melanoma
UACC-62 melanoma = test system: UACC-62 melanoma
UO-31 renal = test system: UO-31 renal

How did the GI50 (786-0 renal) turn out when `Oc1ccc(Br)cc1CN1CCN(Cc2ccc(Cl)cc2)CC1` was run?
Its GI50 is 21.2 µM.

What about the TGI (786-0 renal) of the same compound?
Its TGI is 80.9 µM.

What about the GI50 (A498 renal) of the same compound?
Its GI50 is 0.4 µM.

And the TGI (A498 renal)?
The TGI was 45 µM.

And the GI50 (A549 NSCLC)?
Its GI50 is 25.1 µM.

What about the TGI (A549 NSCLC) of the same compound?
The TGI was > 100 µM.

And the GI50 (ACHN renal)?
Its GI50 is 31.7 µM.

And the TGI (ACHN renal)?
Its TGI is > 100 µM.

What about the GI50 (BT-549 breast) of the same compound?
Its GI50 is 38.2 µM.

What about the TGI (BT-549 breast) of the same compound?
Its TGI is > 100 µM.

And the GI50 (CAKI-1 renal)?
Its GI50 is 22.7 µM.

And the TGI (CAKI-1 renal)?
The TGI was > 100 µM.

And the GI50 (CCRF-CEM leukemia)?
The GI50 was 24.3 µM.

And the TGI (CCRF-CEM leukemia)?
Its TGI is > 100 µM.

And the GI50 (COLO 205 colon)?
Its GI50 is 21.7 µM.

What about the TGI (COLO 205 colon) of the same compound?
The TGI was 51.1 µM.

What about the GI50 (DU-145 prostate) of the same compound?
Its GI50 is 46.3 µM.

What about the TGI (DU-145 prostate) of the same compound?
Its TGI is > 100 µM.

What about the GI50 (HCC-2998 colon) of the same compound?
Its GI50 is 30.8 µM.

And the TGI (HCC-2998 colon)?
The TGI was > 100 µM.

What about the GI50 (HCT-116 colon) of the same compound?
Its GI50 is 21.1 µM.

And the TGI (HCT-116 colon)?
The TGI was > 100 µM.

And the GI50 (HCT-15 colon)?
The GI50 was 16.1 µM.

And the TGI (HCT-15 colon)?
The TGI was 51.3 µM.

And the GI50 (HL-60(TB) leukemia)?
Its GI50 is 22.8 µM.

And the TGI (HL-60(TB) leukemia)?
The TGI was 66.5 µM.

What about the GI50 (HOP-62 NSCLC) of the same compound?
Its GI50 is 36.5 µM.

And the TGI (HOP-62 NSCLC)?
The TGI was > 100 µM.

What about the GI50 (HOP-92 NSCLC) of the same compound?
The GI50 was 11.1 µM.

And the TGI (HOP-92 NSCLC)?
Its TGI is 72.1 µM.

What about the GI50 (HS 578T breast) of the same compound?
The GI50 was 28.6 µM.

What about the TGI (HS 578T breast) of the same compound?
Its TGI is > 100 µM.

And the GI50 (HT29 colon)?
The GI50 was 23.2 µM.

And the TGI (HT29 colon)?
The TGI was 62.5 µM.

What about the GI50 (IGROV1 ovarian) of the same compound?
Its GI50 is 44.3 µM.

And the TGI (IGROV1 ovarian)?
Its TGI is > 100 µM.

And the GI50 (K-562 leukemia)?
The GI50 was 10.2 µM.

And the TGI (K-562 leukemia)?
The TGI was > 100 µM.

What about the GI50 (KM12 colon) of the same compound?
The GI50 was 26.3 µM.

What about the TGI (KM12 colon) of the same compound?
Its TGI is > 100 µM.

And the GI50 (LOX IMVI melanoma)?
Its GI50 is 16.3 µM.

And the TGI (LOX IMVI melanoma)?
Its TGI is 36.9 µM.

And the GI50 (MALME-3M melanoma)?
Its GI50 is 14.7 µM.

What about the TGI (MALME-3M melanoma) of the same compound?
The TGI was 45.8 µM.

What about the GI50 (MCF7 breast) of the same compound?
The GI50 was 18.4 µM.

And the TGI (MCF7 breast)?
The TGI was 94.3 µM.

What about the GI50 (MDA-MB-231 breast) of the same compound?
The GI50 was 17 µM.

What about the TGI (MDA-MB-231 breast) of the same compound?
The TGI was 59.4 µM.

And the GI50 (MDA-MB-435)?
Its GI50 is 20.8 µM.

And the TGI (MDA-MB-435)?
Its TGI is 90.4 µM.

What about the GI50 (MOLT-4 leukemia) of the same compound?
Its GI50 is 26.7 µM.

What about the TGI (MOLT-4 leukemia) of the same compound?
The TGI was > 100 µM.

What about the GI50 (NCI-H226 lung) of the same compound?
Its GI50 is 20.8 µM.

And the TGI (NCI-H226 lung)?
Its TGI is > 100 µM.

And the GI50 (NCI-H23 lung)?
Its GI50 is 16.5 µM.

And the TGI (NCI-H23 lung)?
Its TGI is > 100 µM.

And the GI50 (NCI-H460 lung)?
The GI50 was 25.7 µM.

And the TGI (NCI-H460 lung)?
Its TGI is > 100 µM.

What about the GI50 (NCI-H522 lung) of the same compound?
The GI50 was 13.3 µM.

What about the TGI (NCI-H522 lung) of the same compound?
Its TGI is 39.2 µM.

What about the GI50 (NCI/ADR-RES ovarian) of the same compound?
Its GI50 is 17.2 µM.

What about the TGI (NCI/ADR-RES ovarian) of the same compound?
The TGI was > 100 µM.

And the GI50 (OVCAR-3 ovarian)?
Its GI50 is 26.3 µM.

What about the TGI (OVCAR-3 ovarian) of the same compound?
Its TGI is > 100 µM.

And the GI50 (OVCAR-4 ovarian)?
Its GI50 is 11.8 µM.

What about the TGI (OVCAR-4 ovarian) of the same compound?
The TGI was 86.3 µM.

And the GI50 (OVCAR-5 ovarian)?
Its GI50 is 21.2 µM.

What about the TGI (OVCAR-5 ovarian) of the same compound?
The TGI was 75.2 µM.

What about the GI50 (OVCAR-8 ovarian) of the same compound?
Its GI50 is 24.8 µM.

And the TGI (OVCAR-8 ovarian)?
The TGI was > 100 µM.

And the GI50 (PC-3 prostate)?
The GI50 was 23.9 µM.

What about the TGI (PC-3 prostate) of the same compound?
The TGI was > 100 µM.

What about the GI50 (RPMI-8226 leukemia) of the same compound?
Its GI50 is 14.4 µM.

And the TGI (RPMI-8226 leukemia)?
Its TGI is > 100 µM.

And the GI50 (RXF 393 renal)?
Its GI50 is 17.3 µM.

And the TGI (RXF 393 renal)?
The TGI was 80 µM.

And the GI50 (SF-268 CNS)?
Its GI50 is 31.5 µM.

What about the TGI (SF-268 CNS) of the same compound?
Its TGI is > 100 µM.

And the GI50 (SF-295 CNS)?
The GI50 was 18.6 µM.

And the TGI (SF-295 CNS)?
The TGI was > 100 µM.

What about the GI50 (SF-539 CNS) of the same compound?
The GI50 was 32 µM.

What about the TGI (SF-539 CNS) of the same compound?
Its TGI is > 100 µM.

What about the GI50 (SK-MEL-2 melanoma) of the same compound?
Its GI50 is 13.2 µM.

What about the TGI (SK-MEL-2 melanoma) of the same compound?
The TGI was 40.3 µM.

What about the GI50 (SK-MEL-28 melanoma) of the same compound?
Its GI50 is 24 µM.

And the TGI (SK-MEL-28 melanoma)?
The TGI was > 100 µM.

And the GI50 (SK-MEL-5 melanoma)?
The GI50 was 13 µM.

What about the TGI (SK-MEL-5 melanoma) of the same compound?
The TGI was 26.4 µM.

What about the GI50 (SK-OV-3 ovarian) of the same compound?
The GI50 was 31 µM.

What about the TGI (SK-OV-3 ovarian) of the same compound?
Its TGI is > 100 µM.

What about the GI50 (SN12C renal) of the same compound?
The GI50 was 27.1 µM.

What about the TGI (SN12C renal) of the same compound?
The TGI was > 100 µM.

And the GI50 (SNB-19 CNS)?
Its GI50 is 37.8 µM.

And the TGI (SNB-19 CNS)?
The TGI was > 100 µM.

What about the GI50 (SNB-75 CNS) of the same compound?
The GI50 was 27.6 µM.

And the TGI (SNB-75 CNS)?
The TGI was > 100 µM.

What about the GI50 (SR leukemia) of the same compound?
Its GI50 is 19.1 µM.

And the TGI (SR leukemia)?
Its TGI is 80.9 µM.

And the GI50 (SW-620 colon)?
The GI50 was 22.2 µM.

And the TGI (SW-620 colon)?
Its TGI is 92.5 µM.

And the GI50 (T-47D breast)?
The GI50 was 8.9 µM.

And the TGI (T-47D breast)?
Its TGI is > 100 µM.

And the GI50 (TK-10 renal)?
Its GI50 is 24.8 µM.

What about the TGI (TK-10 renal) of the same compound?
Its TGI is > 100 µM.

And the GI50 (U251 CNS)?
The GI50 was 27.7 µM.

What about the TGI (U251 CNS) of the same compound?
Its TGI is > 100 µM.

What about the GI50 (UACC-257 melanoma) of the same compound?
The GI50 was 16.5 µM.

And the TGI (UACC-257 melanoma)?
Its TGI is 59.4 µM.

What about the GI50 (UACC-62 melanoma) of the same compound?
The GI50 was 17.6 µM.

And the TGI (UACC-62 melanoma)?
The TGI was > 100 µM.

And the GI50 (UO-31 renal)?
The GI50 was 9.5 µM.

And the TGI (UO-31 renal)?
Its TGI is > 100 µM.
